Results on two molecules are retold here after patent US6221860A, “Beta-lactam inhibitors of CoA-IT” (SmithKline Beecham Corporation, priority 1999, dated 2001).

Molecules are shown by their SMILES.

One experiment relates to CoA-IT. Nature of the experiment: Microsomal CoA-IT activity assay (U937 cell microsomes). The experiment is classed as biochemical. To be noted: increased uM or longer pretreatment time.
Experiment [1] deals with phorbol ester-induced inflammation in mouse ear. Nature of the experiment: TPA-induced mouse ear inflammation (ear edema and MPO). Format: in vivo. To be noted: topical, Balb/c mice. The protocol:
Male Balb/c inbred mice were obtained from Charle River Breeding Laboratories (Kingston, N.Y.). Within a single experiment mice (22-25 g) were age-matched. These in vivo experiments typically involved use of 5-6 animals/group.
TPA (12-O-tetradecanoylphorbol 13-acetate) (Sigma Chemical Company) in acetone ([…]) was applied to the inner and outer surfaces of the left ear of BALB/c male mice. The thickness of both ears was then measured with a dial micrometer (Mitutoyo, Japan) at both 2 and 4 hours after treatment, and the data expressed as the change in thickness (10^-3 cm) between treated and untreated ears. […] After measuring the edema, the inflammed left ears were removed and stored at -70° C. until they were assayed for MPO (myeloperoxidase) activity where appropriate.
On the day of the assay, partially thawed ear tissues were minced and then homogenized (10% w/v) with a Tissumnizer homogenizer (Tekmar Co.) in 50 mM phosphate buffer (pH 6) containing 0.5% HTAB. […] Supernatant MPO activity was quantified kinetically (change in absorbance measured over 3 min, sampled at 15-sec intervals) using a Beckman DU-7 spectrophotometer and a Kinetics Analysis package (Beckman Instruments, Inc.). […]
Balb/c mice were given PMA followed by the test compound. The edematous response was measured using a thickness gauge 4 hrs post PMA application. […]

Source text for CoA-IT: The following is a method to measure CoA-IT activity and the effects of compounds on CoA-IT activity. The assay is based upon mixing cellular material containing CoA-IT activity with a stable lyso phospholipid such as 1-alkyl-2-acyl-GPC and measuring the production of phospholipid product such as 1-alkyl-2-acyl-GPC occurring in the absence of added CoA or CoA-fatty acids.
Any inflammatory cell that contains high levels of COA-IT activity can be used, such as neutrophils, macrophages or cell lines such as U937 cells. U937 cells were obtained from American Type Culture Collection and grown in RPMI- 1640 media (Gibco, Grand Island, N.Y.) supplemented with 10% fetal bovine serum (Hyclone, Logan, Utah) at 37° C., 5% CO2. Cells were grown without differentiation (basal state) by any agent, such as dimethyl sulfoxide.
Microsomes were prepared using standard techniques. […]
CoA-lT activity was measured in 1.5 ml centrifuge tubes in a total volume of 100 ul. […] An aliquot of the chloroform-extracted materials were separated, usually by TLC in chloroform/methanol/acetic acid/water (50:25:8:4, v/v), visualized by radioscanning (Bioscan) and the product, [^3 H]1-alkyl-2-acyl-GPC, was scraped and quantified by liquid scintillation spectroscopy. […]
Protein concentration were assessed using the protein assay reagents from Bio-Rad (Richmond, Calif.).

As to `COC(=O)CCCO[C@@H]1NC(=O)[C@H]1NC(c1ccccc1)(c1ccccc1)c1ccccc1` [Example 17, (3S,4S)-4-[3-(Methoxycarbonyl)propoxy]-3-(triphenylmethylamino)azetidin-2-one], the “activity in CoA-IT assay at increased concentration or longer pretreatment” value in the experiment with CoA-IT is “active at either increased uM or longer pretreatment time”. As to `C[C@@H]1C[C@H]2[C@@H]3CCC4=CC(=O)C=C[C@]4(C)[C@@]3(F)[C@@H](O)C[C@]2(C)[C@@]1(O)C(=O)CO` [dexamethasone, reference compound], the “Edema @ 4 hr ED50” value in experiment [1] (4 hrs post PMA application) turned out to be 0.06 mg/ear. The “MPO response ED50” value in experiment [1] (inflamed ears harvested after the 4 hr edema measurement) came out at 0.03 mg/ear.
